Experimental data as given in patent US20250134855A1, “CO[…] AND METHODS OF USING SAME” (LYKOS THERAPEUTICS, INC., priority 2022, published 2025).

Assays:
[1] = test system: participants with severe PTSD; experiment: MAPP1 Phase 3: CAPS-5 total severity score; format: in vivo, human; conditions: for CFB in CAPS-5 Total Severity Score, LS mean for treatment difference (95% CI) / CFB in CAPS-5 Total Severity Score, LS mean / CAPS-5 Total Severity Score, Mean / CAPS-5 Total Severity Score, Median / CFB in CAPS-5 Total Severity Score, Mean / CFB in CAPS-5 Total Severity Score, Median / Loss of Diagnosis, % / Non-Responder (<10-point reduction in CAPS-5 Total Severity Score), % / Remission, % / Responder (≥10-point reduction in CAPS-5 Total Severity Score), %: MAPP1, mITT; for CFB in CAPS-5 Total Severity Score, LS mean for treatment difference (95% CI): vs placebo with therapy
Text: FIG. 36 and FIG. 37 show the time course of improvement in Clinician Administered PTSD Scale for DSM-5 (CAPS-5) total severity score versus placebo. Each show a treatment difference between MDMA and placebo after 3 medication sessions with psychological intervention. […] Between the second and third treatment sessions, the difference between the groups appeared to continue to increase in both studies. The primary efficacy measure was change from baseline in the CAPS-5 total severity score at 18 weeks, which was evaluated 2 months after the final dosing session. The CAPS-5 is a 30-item, clinician-rated scale used to assess severity of PTSD symptoms and diagnostic status according to DSM-5 criteria, as described herein. Scores on the CAPS 5 range from 0 to 80, with higher scores indicating more severe PTSD symptoms. In both studies, a secondary efficacy measure was change from baseline in Sheehan Disability Scale (SDS) mean item scores at 18 weeks. The modified SDS is a 3-item, clinician-rated scale measuring the degree of functional impairment in work, family, and social life. Scores on the SDS mean items range from 0 to 10, with higher scores indicating more functional impairment. In these studies, the efficacy assessments were administered by blinded independent raters 18 to 30 days after medication sessions 1 and 2.
A flexible dose of MDMA hydrochloride salt (referred to as MDMA throughout) or placebo, followed by a supplemental half-dose unless contraindicated, was administered during the Treatment Period with manualized psychotherapy in three blinded monthly Experimental Sessions. This ˜12-week Treatment Period was preceded by three Preparatory Sessions. During the Treatment Period, each Experimental Session was followed by three Integrative Sessions of non-drug psychotherapy. Experimental Sessions were followed by an overnight stay. The Primary Outcome measure, the change in Clinician Administered PTSD Scale (CAPS-5), was assessed by a blinded centralized Independent Rater (IR) pool multiple times throughout the study. Three blinded manualized Experimental Sessions of psychotherapy assisted by flexible doses of MDMA·HCl or placebo were administered (see Table 28 below). Initial doses per Experimental Session include 80 mg or 120 mg MDMA compounded with mannitol and magnesium stearate or indistinguishable weight placebos comprised entirely of mannitol and magnesium stearate, followed 1.5 to 2 hours later by a supplemental half-dose (40 mg or 60 mg MDMA·HCl or placebo). Total amounts of MDMA·HCl to be administered per Experimental Session range from 80 mg to 180 mg. All drug is encapsulated with HPMC capsules.
In the first Experimental Session, the initial dose was 80 mg MDMA·HCl or placebo. In the second and third Experimental Sessions, the initial dose may be increased to 120 mg MDMA·HCl or placebo unless contraindicated. The choice of whether to keep the dose the same or change it from the first Experimental Session was made by the therapy team the in consultation with the site physician based on observed response, tolerability to the previously administered dose, and discussion with the participant. In each Experimental Session, 1.5 to 2 hours after the initial dose is given, the participant was administered a supplemental half-dose unless contraindicated. If an AE requiring medical attention occurs between the initial and supplemental dose this was evaluated as a potential contraindication by the site physician. If a participant prefers not to take the supplemental dose, the reason was documented. Participants will not know if they have been assigned MDMA or placebo but can indicate if they want the dose to change or remain the same.
The MDMA assisted therapy (MDMA-AT) approach is detailed in the “Manual for MDMA Assisted Therapy in the Treatment of PTSD,” published by MAPS (MDMA Treatment Manual, available at maps.org/treatment-manual). […]

BCRP = BCRP (Homo sapiens, UniProt Q9UNQ0); experiment: Transporter inhibition, BCRP; conditions: not told
[2] = de jure estimand, Baseline CAPS-5 T1 (Visit 3)
[3] = de jure estimand, CAPS-5 T2 (Visit 8)
[4] = de jure estimand, CAPS-5 T3 (Visit 13)
[5] = de jure estimand, CAPS-5 T4 (Visit 19)
[6] = de jure estimand, CFB to T2 (Visit 8)
[7] = de jure estimand, CFB to T3 (Visit 13)
[8] = de jure estimand, CFB to T4 (Visit 19)
[9] = T4 (primary) endpoint (Visit 19)

BCRP, sequence (Q9UNQ0 whole entry): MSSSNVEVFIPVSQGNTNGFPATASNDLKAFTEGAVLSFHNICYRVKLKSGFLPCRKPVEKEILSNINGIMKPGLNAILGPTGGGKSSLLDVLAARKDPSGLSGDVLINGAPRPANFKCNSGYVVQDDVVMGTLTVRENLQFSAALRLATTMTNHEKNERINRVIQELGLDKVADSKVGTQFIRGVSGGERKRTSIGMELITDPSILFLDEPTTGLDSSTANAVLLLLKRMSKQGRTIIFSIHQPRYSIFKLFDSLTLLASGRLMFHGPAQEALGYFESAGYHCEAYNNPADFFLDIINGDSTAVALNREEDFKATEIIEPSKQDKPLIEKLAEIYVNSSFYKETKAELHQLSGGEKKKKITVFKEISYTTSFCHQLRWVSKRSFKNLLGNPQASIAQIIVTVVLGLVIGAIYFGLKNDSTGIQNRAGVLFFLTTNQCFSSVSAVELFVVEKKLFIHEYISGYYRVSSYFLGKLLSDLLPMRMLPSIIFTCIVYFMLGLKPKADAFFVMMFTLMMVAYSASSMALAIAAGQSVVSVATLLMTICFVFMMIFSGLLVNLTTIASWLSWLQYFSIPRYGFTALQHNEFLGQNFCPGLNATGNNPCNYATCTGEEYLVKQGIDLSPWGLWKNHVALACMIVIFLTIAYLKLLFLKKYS

`CNC(C)Cc1ccc2c(c1)OCO2` (centres unmarked) [MDMA, 3,4-methylenedioxymethamphetamine] was tested, and the “onset of treatment efficacy (CAPS-5 versus placebo)” value ([1]; FIG. 36 and FIG. 37, both studies) was “after the second session”, the “CFB in CAPS-5 Total Severity Score, LS mean for treatment difference (95% CI)” value (from here on “CFB … for treatment difference (95% CI)”) ([1]; MMRM, T2 (Visit 8)) was −3.69 (−7.93, 0.54) and the “CFB … for treatment difference (95% CI)” value ([1]; MMRM, T3 (Visit 13)) was −8.41 (−13.53, −3.29). The “CFB … for treatment difference (95% CI)” value ([1]; MMRM, T4 (Visit 19)) was −11.86 (−17.41, −6.32), the “CFB in CAPS-5 Total Severity Score, LS mean” value ([1]; de jure estimand, MMRM, CFB to T2 (Visit 8)) was −10.40 and the “CFB in CAPS-5 Total Severity Score, LS mean” value ([1]; de jure estimand, MMRM, CFB to T3 (Visit 13)) was −17.83. The “CFB in CAPS-5 Total Severity Score, LS mean” value ([1]; de jure estimand, MMRM, CFB to T4 (Visit 19)) was −24.50, the “CAPS-5 Total Severity Score, Mean” value [1, 2] was 44.0 and the “CAPS-5 Total Severity Score, Median” value [1, 2] was 43.5. For the same molecule, the “CAPS-5 Total Severity Score, Mean” value [1, 3] was 33.7, the “CAPS-5 Total Severity Score, Median” value [1, 3] was 34.5 and the “CAPS-5 Total Severity Score, Mean” value [1, 4] was 26.2. For the same molecule, the “CAPS-5 Total Severity Score, Median” value [1, 4] was 28.0, the “CAPS-5 Total Severity Score, Mean” value [1, 5] was 19.5 and the “CAPS-5 Total Severity Score, Median” value [1, 5] was 18.5. For the same molecule, the “CFB in CAPS-5 Total Severity Score, Mean” value [1, 6] was −10.3, the “CFB in CAPS-5 Total Severity Score, Median” value (“CFB … Median” below) [1, 6] was −9.0 and the “CFB in CAPS-5 Total Severity Score, Mean” value [1, 7] was −17.7. The “CFB … Median” value [1, 7] was −17.5, the “CFB in CAPS-5 Total Severity Score, Mean” value [1, 8] was −24.4 and the “CFB … Median” value [1, 8] was −25.0. The “Loss of Diagnosis, %” value ([1]; T2 endpoint (Visit 8)) was “(23.9) %”, the “Non-Responder (<10-point reduction in CAPS-5 Total Severity Score), %” value ([1]; T2 endpoint (Visit 8)) was “(54.3) %” and the “Remission, %” value ([1]; T2 endpoint (Visit 8)) was “(8.7) %”. The “Responder (≥10-point reduction in CAPS-5 Total Severity Score), %” value ([1]; T2 endpoint (Visit 8)) was “(45.7) %”, the “Loss of Diagnosis, %” value ([1]; T3 endpoint (Visit 13)) was “(57.1) %” and the “Non-Responder (<10-point reduction in CAPS-5 Total Severity Score), %” value ([1]; T3 endpoint (Visit 13)) was “(26.2) %”. The “Remission, %” value ([1]; T3 endpoint (Visit 13)) was “(11.9) %”, the “Responder (≥10-point reduction in CAPS-5 Total Severity Score), %” value ([1]; T3 endpoint (Visit 13)) was “(73.8) %” and the “Loss of Diagnosis, %” value [1, 9] was “(66.7) %”. The “Non-Responder (<10-point reduction in CAPS-5 Total Severity Score), %” value [1, 9] was “(11.9) %”, the “Remission, %” value [1, 9] was “(33.3) %” and the “Responder (≥10-point reduction in CAPS-5 Total Severity Score), %” value [1, 9] was “(88.1) %”. For the same molecule, the “change from Baseline to Visit 19 in CAPS-5 total severity scores” value ([1]; MAPP1, MMRM, de jure estimand, mITT) was −24.50, the “no longer met PTSD diagnostic criteria” value ([1]; MAPP1, Visit 19) was 66.7% and the “remission (CAPS-5 ≤11 and no longer meeting PTSD diagnostic criteria)” value ([1]; MAPP1, Visit 19) was 33.3%. For the same molecule, the “responders (≥10-point reduction in CAPS-5 total severity score)” value ([1]; MAPP1, Visit 19) was 88.1% and the “inhibition of BCRP” value (BCRP) was “not an inhibitor”.
